Seven molecules from patent publication US8765696B2, “Steroid compound” (Mikasa Seiyaku Co., Ltd., priority 2009, dated 2014) can be followed below.

Data set [1] has as its system croton oil-induced ear edema. The experiment in a line: Test for croton oil-induced ear edema. It counts as in vivo. As to conditions: rat right auricle; for Edema suppression rate of 6 hours after administration of inflammatory agent (%): 6 hours after croton oil; for Edema suppression rate of 24 hours after administration of inflammatory agent (%): 24 hours after croton oil. How it is done: Croton oil ear edema test, which is a representative model for dermatitis, was used to study the pharmacological effect of compounds of the present invention.
Five individuals/group of rats of 5 weeks old (body weight, 128 g to 169 g) were used. One day before the test, the thickness of the right ear was measured under ether anesthesia using a dial thickness gauge, to obtain the Pre value. On the day of the test, 20 mg each of the ointments to be tested, which had been prepared to have various concentrations in white vaseline, was applied to the right auricle (both sides) of each rat, and a collar was then placed around the neck of the rat to prevent contacting/scratching and removal of the drug. Two hours later, the ointment was wiped off under ether anesthesia using absorbent cotton, and 0.1 mL of 5% croton oil (croton oil:ether:pyridine:distilled water=1:14:4:1) solution was applied dropwise to the both sides of the auricle while drying the solution with a drier (air blow), to induce ear edema. Six and 24 hours after the induction of the edema, the thickness of the right auricle was measured under ether anesthesia, and the edema rate and the edema suppression rate were calculated according to the equations below, which suppression rate is shown in Table 1.

The subject of data set [2] is croton oil-induced granuloma. In words: Test for croton oil-induced granuloma (air pouch exudate and thymus weight). It counts as in vivo, rat. As to conditions: male Wistar rats, 7 days, vs control group. The text has this: Using the croton oil granuloma test, which is a test method with which the local anti-inflammatory action and the systemic side effect can be evaluated at the same time, the pharmacological effect and the systemic side effect of the compounds of the present invention were studied.
Five individuals/group of male Wistar rats having body weights of 180 to 225 g were used, and hair on the back of these rats was shaved with a clipper under ether anesthesia, followed by preparing an air pouch by subcutaneous injection of 20 mL of air at the back. On the next day, 1 mL of cottonseed oil containing 1% croton oil was administered to the pouch. Each test drug was suspended in the croton oil-containing cottonseed oil before administration. Seven days later, blood was collected from abdominal aorta under ether anesthesia, and exudate in the pouch was collected and its fluid amount was measured. Further, the thymus was removed, and its weight was measured. The weight of the exudate and the weight of the thymus are shown in Table 2 as the suppression rate and the atrophy rate (%) with respect to those of the control group.

With `CC(C)C(=O)OCC(=O)[C@@]12O[C@H](C3CCCCC3)O[C@@H]1C[C@H]1[C@@H]3CCC4=CC(=O)C=C[C@]4(C)[C@H]3[C@@H](O)C[C@@]12C` [Ciclesonide, ciclesonide, reference compound], the “Edema suppression rate of 6 hours after administration of inflammatory agent (%)” value (from here on “Edema suppression rate of 6 hours … (%)”) in data set [1] (ointment concentration 0.001%) was determined as 9.1%; in data set [1] (ointment concentration 0.01%), 30.3%; in data set [1] (ointment concentration 0.1%), 49.4%. Also, the “Edema suppression rate of 24 hours after administration of inflammatory agent (%)” value (from here on “Edema suppression rate of 24 hours … (%)”) in data set [1] (ointment concentration 0.001%) was 9.4%; in data set [1] (ointment concentration 0.01%), 24.5%; in data set [1] (ointment concentration 0.1%), 43.5%. In addition, the “Rate of exudates suppression (pharmacological effects)” value (shortened to “Rate … (pharmacological effects)”) amounted to 62.8% in data set [2] (dose 0.001 mg/rat into pouch), 93.5% in data set [2] (dose 0.01 mg/rat into pouch), 93.0% in data set [2] (dose 0.1 mg/rat into pouch) and 92.6% in data set [2] (dose 1 mg/rat into pouch). For the same molecule, the “Rate of thymus atrophy (systemic side effects)” value (from here on “Rate of thymus atrophy”) in data set [2] (dose 0.001 mg/rat into pouch) turned out to be 6.0%; in data set [2] (dose 0.01 mg/rat into pouch), 13.0%; in data set [2] (dose 0.1 mg/rat into pouch), 23.6%; in data set [2] (dose 1 mg/rat into pouch) it was 84.4%.
For the molecule `CC(=O)NC1C(OCC(=O)C23OC(C4CCCCC4)OC2CC2C4CCC5=CC(=O)C=CC5(C)C4C(O)CC23C)OC(COC(C)=O)C(OC(C)=O)C1OC(C)=O` (centres unmarked) [Compound 12], the results for the “Edema suppression rate of 6 hours … (%)” value in data set [1] (ointment concentration 0.001%), in data set [1] (ointment concentration 0.01%) and in data set [1] (ointment concentration 0.1%) were 29.9%, 16.7% and 12.4%, respectively. Besides, the “Edema suppression rate of 24 hours … (%)” value was 36.6% in data set [1] (ointment concentration 0.001%), 29.6% in data set [1] (ointment concentration 0.01%) and 9.1% in data set [1] (ointment concentration 0.1%). Moreover, the “Rate … (pharmacological effects)” value in data set [2] (dose 0.001 mg/rat into pouch) is on record as 3.6%; in data set [2] (dose 0.01 mg/rat into pouch), 0.0%; in data set [2] (dose 0.1 mg/rat into pouch) it was 0.0%; in data set [2] (dose 1 mg/rat into pouch), 76.5%. Besides, the “Rate of thymus atrophy” value in data set [2] (dose 0.001 mg/rat into pouch) worked out at 0.0%; in data set [2] (dose 0.01 mg/rat into pouch), 5.8%; in data set [2] (dose 0.1 mg/rat into pouch) it was 17.7%; in data set [2] (dose 1 mg/rat into pouch), 8.0%.
`CCCC(=O)OCC1OC(OCC(=O)C23OC(C4CCCCC4)OC2CC2C4CCC5=CC(=O)C=CC5(C)C4C(O)CC23C)C(OC(=O)CCC)C(OC(=O)CCC)C1OC(=O)CCC` (centres unmarked) [Compound 5]: the “Edema suppression rate of 6 hours … (%)” value was 21.7% in data set [1] (ointment concentration 0.001%), 61.5% in data set [1] (ointment concentration 0.01%) and 57.6% in data set [1] (ointment concentration 0.1%). Also, the results for the “Edema suppression rate of 24 hours … (%)” value in data set [1] (ointment concentration 0.001%), in data set [1] (ointment concentration 0.01%) and in data set [1] (ointment concentration 0.1%) were 11.1%, 48.1% and 52.3%, respectively. In addition, the “Rate … (pharmacological effects)” value in data set [2] (dose 0.001 mg/rat into pouch) came out at 17.8%; in data set [2] (dose 0.01 mg/rat into pouch) it was 14.3%; in data set [2] (dose 0.1 mg/rat into pouch), 40.4%; in data set [2] (dose 1 mg/rat into pouch) it was 91.4%. Besides, the “Rate of thymus atrophy” value in data set [2] (dose 0.001 mg/rat into pouch), in data set [2] (dose 0.01 mg/rat into pouch), in data set [2] (dose 0.1 mg/rat into pouch) and in data set [2] (dose 1 mg/rat into pouch) was 0.0% throughout.
`CCCC1O[C@@H]2C[C@H]3[C@@H]4CCC5=CC(=O)C=C[C@]5(C)[C@H]4[C@@H](O)C[C@]3(C)[C@]2(C(=O)CO)O1` (some centres unmarked) [Budesonide, budesonide, reference compound]: the “Edema suppression rate of 6 hours … (%)” value stood at 11.8% in data set [1] (ointment concentration 0.001%), 32.3% in data set [1] (ointment concentration 0.01%) and 48.1% in data set [1] (ointment concentration 0.1%). The figures for the “Edema suppression rate of 24 hours … (%)” value in data set [1] (ointment concentration 0.001%), in data set [1] (ointment concentration 0.01%) and in data set [1] (ointment concentration 0.1%) were 7.6%, 33.5% and 45.1%, respectively. The “Rate … (pharmacological effects)” value was found to be 10.8% in data set [2] (dose 0.001 mg/rat into pouch), 66.9% in data set [2] (dose 0.01 mg/rat into pouch), 91.6% in data set [2] (dose 0.1 mg/rat into pouch) and 94.3% in data set [2] (dose 1 mg/rat into pouch). Moreover, the “Rate of thymus atrophy” value came to 7.3% in data set [2] (dose 0.001 mg/rat into pouch), 17.7% in data set [2] (dose 0.01 mg/rat into pouch), 74.5% in data set [2] (dose 0.1 mg/rat into pouch) and 87.5% in data set [2] (dose 1 mg/rat into pouch).
As for `CC(=O)OC1C(C)OC(OCC(=O)C23OC(C4CCCCC4)OC2CC2C4CCC5=CC(=O)C=CC5(C)C4C(O)CC23C)C(OC(C)=O)C1OC(C)=O` (centres unmarked) [Compound 10], the “Edema suppression rate of 6 hours … (%)” value in data set [1] (ointment concentration 0.001%) stood at 42.4%; in data set [1] (ointment concentration 0.01%), 55.9%; in data set [1] (ointment concentration 0.1%) it was 38.9%. Further, the “Edema suppression rate of 24 hours … (%)” value in data set [1] (ointment concentration 0.001%) is given as 45.8%; in data set [1] (ointment concentration 0.01%) it was 33.2%; in data set [1] (ointment concentration 0.1%), 39.9%. Moreover, the “Rate … (pharmacological effects)” value in data set [2] (dose 0.001 mg/rat into pouch) was 4.6%; in data set [2] (dose 0.01 mg/rat into pouch), 0.0%; in data set [2] (dose 0.1 mg/rat into pouch), 4.8%; in data set [2] (dose 1 mg/rat into pouch), 5.3%. Also, the “Rate of thymus atrophy” value in data set [2] (dose 0.001 mg/rat into pouch), in data set [2] (dose 0.01 mg/rat into pouch), in data set [2] (dose 0.1 mg/rat into pouch) and in data set [2] (dose 1 mg/rat into pouch) was 0.0% in each case.
`CC(=O)OC1C(C)OC(OCC(=O)C23OC(C4CCCCC4)OC2CC2C4CCC5=CC(=O)C=CC5(C)C4C(O)CC23C)C(OC(C)=O)C1OC(C)=O` (centres unmarked) [Compound 9]: the results for the “Edema suppression rate of 6 hours … (%)” value in data set [1] (ointment concentration 0.001%), in data set [1] (ointment concentration 0.01%) and in data set [1] (ointment concentration 0.1%) were 24.6%, 36.7% and 23.0%, respectively. For the same molecule, the entries for the “Edema suppression rate of 24 hours … (%)” value in data set [1] (ointment concentration 0.001%), in data set [1] (ointment concentration 0.01%) and in data set [1] (ointment concentration 0.1%) were 17.8%, 8.6% and 21.6%, respectively. For the same molecule, the “Rate … (pharmacological effects)” value in data set [2] (dose 0.001 mg/rat into pouch) is given as 10.4%; in data set [2] (dose 0.01 mg/rat into pouch), 7.3%; in data set [2] (dose 0.1 mg/rat into pouch), 26.1%; in data set [2] (dose 1 mg/rat into pouch) it was 58.2%. For the same molecule, the “Rate of thymus atrophy” value in data set [2] (dose 0.001 mg/rat into pouch) is listed as 12.2%; in data set [2] (dose 0.01 mg/rat into pouch) it was 10.8%; in data set [2] (dose 0.1 mg/rat into pouch), 9.4%; in data set [2] (dose 1 mg/rat into pouch) it was 15.5%.
As to `CC(C)C(=O)OCC1OC(OCC(=O)C23OC(C4CCCCC4)OC2CC2C4CCC5=CC(=O)C=CC5(C)C4C(O)CC23C)C(OC(=O)C(C)C)C(OC(=O)C(C)C)C1OC(=O)C(C)C` (centres unmarked) [Compound 6], the “Edema suppression rate of 6 hours … (%)” value is reported as 27.5% in data set [1] (ointment concentration 0.001%), 53.1% in data set [1] (ointment concentration 0.01%) and 53.1% in data set [1] (ointment concentration 0.1%). For the same molecule, the entries for the “Edema suppression rate of 24 hours … (%)” value in data set [1] (ointment concentration 0.001%), in data set [1] (ointment concentration 0.01%) and in data set [1] (ointment concentration 0.1%) were 30.5%, 45.8% and 55.1%, respectively. Moreover, the “Rate … (pharmacological effects)” value in data set [2] (dose 0.001 mg/rat into pouch) turned out to be 0.0%; in data set [2] (dose 0.01 mg/rat into pouch), 12.0%; in data set [2] (dose 0.1 mg/rat into pouch), 31.2%; in data set [2] (dose 1 mg/rat into pouch) it was 71.9%. In addition, the “Rate of thymus atrophy” value in data set [2] (dose 0.001 mg/rat into pouch), in data set [2] (dose 0.01 mg/rat into pouch), in data set [2] (dose 0.1 mg/rat into pouch) and in data set [2] (dose 1 mg/rat into pouch) was 0.0% throughout.
